Data set [1] deals with BALB/c 3T3 (CCL-163) cells.
The conditions of data set [2]: based on steady-state pharmacokinetics; cited from earlier work.
The conditions of data set [3]: 250 mg every six hours over a twenty-four hour period; cited from earlier work.
For data set [4] the following is noted: single dose of two 100 mg minocycline HCl tablets, adult humans; cited from earlier work.

We go through 36 molecules from patent publication US8192749B2, “Methods of simultaneously treating ocular rosacea and acne rosacea” (priority 2003, dated 2012).

Where a name gives a salt, the structure may show the parent alone. Read-outs that look alike come from different tables or passages of the source.

`CC1(O)c2cccc(O)c2C(=O)C2=C(O)C3(O)C(=O)C(C(N)=O)=C(O)C(O)C3CC21` (stereo not shown) [COL 6, 4-hydroxy-4-dedimethylaminotetracycline]: in data set [1], the MPE worked out at 0.155.

Take `CN(C)[C@@H]1C(O)=C(C(N)=O)C(=O)[C@@]2(O)C(O)=C3C(=O)c4c(O)cccc4[C@@](C)(O)[C@H]3C[C@@H]12` [Tetracycline, reference compound]: in data set [1] (mouse), the MPE came to 0.340 and the “PIF 1” value was determined as 5.38. Besides, the “plasma antibiotic threshold level” value in data set [2] is 0.5 µg/mL.

The molecule `CC1(O)c2c(Cl)ccc(O)c2C(=O)C2=C(O)C3(O)C(=O)C(C(N)=O)=C(O)CC3CC21` (stereo not shown) [COL 4, 7-chloro-4-dedimethylaminotetracycline] displayed an MPE in data set [1] of 0.570.

With `NC(=O)C1=C(O)CC2CC3Cc4c([N+](=O)[O-])ccc(O)c4C(=O)C3=C(O)C2(O)C1=O` (stereo not shown) [COL 302, 7-nitro-6-demethyl-6-deoxy-4-dedimethylaminotetracycline], in data set [1], the MPE is listed as 0.378, the “PIF 1” value was 23.16 and the “PIF 2” value was 23.32.

`CCCCCCCCCCCCCCCC(=O)Nc1ccc2c(c1O)C(=O)C1=C(O)C3(O)C(=O)C(C(N)=O)=C(O)CC3C(O)C1C2C` (stereo not shown) [COL 803, 9-palmitamide-4-dedimethylaminodoxycycline] registered an MPE in data set [1] of 0.047.

`C[N+](C)(C)c1ccc(O)c2c1CC1CC3CC(O)=C(C(N)=O)C(=O)C3(O)C(O)=C1C2=O` (stereo not shown) [COL 1001, 7-trimethylammonium-4-dedimethylaminosancycline]: the MPE in data set [1] was 0.025.

In the case of `CC1c2cccc(O)c2C(=O)C2=C(O)C3(O)C(=O)C(C(=O)NCN4CCNCC4)=C(O)CC3C(O)C21` (stereo not shown) [COL 809, 2-CONHCH2-piperazin-1-yl-4-dedimethylaminodoxycycline], in data set [1], the MPE was 0.420.

`NC(=O)C1=C(O)CC2CC3Cc4c(N)ccc(O)c4C(=O)C3=C(O)C2(O)C1=O` (stereo not shown) [COL 307, 7-amino-6-demethyl-6-deoxy-4-dedimethylaminotetracycline]: in data set [1], the MPE stood at 0.056 and the “PIF 1” value was 1.17.

For `CN(C)c1ccc(O)c2c1CC1CC3CC(O)=C(C(N)=O)C(=O)C3(O)C(O)=C1C2=O` (stereo not shown) [COL 10, 4-dedimethylaminominocycline], in data set [1], the MPE is on record as 0.099, the “PIF 1” value is listed as 1.82, the “PIF 2” value stood at 2.04 and the “mean PIF2” value turned out to be 2.04.

`CN(C)[C@@H]1C(O)=C(C(N)=O)C(=O)[C@@]2(O)C(O)=C3C(=O)c4c(O)cccc4[C@@](C)(O)[C@H]3C[C@@H]12` [tetracycline HCl]: the peak plasma concentration entry in data set [3] is recorded as “approximately 3 μg/ml”.

`CN(C)C1C(=O)C(C#N)=C(O)C2(O)C(=O)C3=C(O)c4c(O)cccc4C(C)(O)C3CC12` (stereo not shown) [COL 2, tetracyclinonitrile] gave an MPE in data set [1] of 0.005.

In the case of `CC(=O)Nc1ccc2c(c1O)C(=O)C1=C(O)C3(O)C(=O)C(C(N)=O)=C(O)CC3C(O)C1C2C` (stereo not shown) [COL 801, 9-acetamido-4-dedimethylaminodoxycycline], in data set [1], the MPE is listed as −0.001 and the “PIF 1” value is reported as 1.0.

In data set [1], `Cc1c2c(c(O)c3c(O)cccc13)C(=O)C1C(=O)C(C(N)=O)=C(O)CC1C2` (stereo not drawn) [COL 9, 4-de(dimethylamino)-12α-deoxyanhydrotetracycline] came in with an MPE of 0.546.

Consider `CN(C)c1ccc2c(c1O)C(=O)C1=C(O)C3(O)C(=O)C(C(N)=O)=C(O)CC3CC1C2` (stereo not shown) [COL 306, 9-dimethylamino-6-demethyl-6-deoxy-4-dedimethylaminotetracycline], for which, in data set [1], the MPE is on record as 0.038, the “PIF 1” value came out at 1.64 and the “PIF 2” value was found to be 1.56.

For the molecule `CC1(O)c2cccc(O)c2C(=O)C2=C(O)C3C(=O)C(C(N)=O)=C(O)CC3CC21` (stereo not drawn) [COL 7, 4-dedimethylamino-12α-deoxytetracycline], in data set [1], the MPE was determined as 0.531.

`CC1(O)c2cccc(O)c2C(=O)C2=C(O)C3(O)C(=O)C(C(N)=O)=C(O)CC3CC21` (stereo not shown) [COL 1, 4-dedimethylaminotetracycline] displayed an MPE in data set [1] of 0.460.

Turning to `CC1c2cccc(O)c2C(=O)C2=C(O)C3(O)C(=O)C(C(N)=O)=C(O)CC3C(O)C21` (stereo not shown) [COL 8, 4-dedimethylaminodoxycycline], in data set [1], the MPE is 0.703, the “PIF 1” value amounted to 165 and the “PIF 2” value is on record as 82.61.

Turning to `O=C(NCN1CCCC1)C1=C(O)CC2CC3Cc4cccc(O)c4C(=O)C3=C(O)C2(O)C1=O` (stereo not shown) [COL 312, 2-CONHCH2-pyrrolidin-1-yl-6-demethyl-6-deoxy-4-dedimethylaminotetracycline], in data set [1], the MPE came to 0.442, the “PIF 1” value is listed as 62.67 and the “PIF 2” value is reported as 75.11.

Consider `O=C(NCN1CCOCC1)C1=C(O)CC2CC3Cc4cccc(O)c4C(=O)C3=C(O)C2(O)C1=O` (stereo not shown) [COL 314, 2-CONHCH2-morpholin-1-yl-6-demetlyl-6-deoxy-4-dedimethylaminotetracycline], for which, in data set [1], the MPE was 0.475, the “PIF 1” value is 41.1 and the “PIF 2” value worked out at 89.48.

For the molecule `CC1c2cccc(O)c2C(=O)C2=C(O)C3(O)C(=O)C(C(=O)NCN4CCCC4)=C(O)CC3C(O)C21` (stereo not shown) [COL 807, 2-CONHCH2-pyrrolidin-1-yl-4-dedimethylaminodoxycycline], in data set [1], the MPE is 0.382 and the “PIF 1” value was determined as 40.4.

For the molecule `CCCCCCCCCCCCCCCC(=O)Nc1ccc2c(c1O)C(=O)C1=C(O)C3(O)C(=O)C(C(N)=O)=C(O)CC3CC1C2` (stereo not shown) [COL 311, 9-palmitamide-6-demethyl-6-deoxy-4-dedimethylaminotetracycline], in data set [1], the MPE is listed as 0.013 and the “PIF 1” value is listed as 1.0.

Consider `CN(C)CC(=O)Nc1ccc2c(c1O)C(=O)C1=C(O)C3(O)C(=O)C(C(N)=O)=C(O)CC3CC1C2` (stereo not shown) [COL 309, 9-dimethylaminoacetamido-6-demethyl-6-deoxy-4-dedimethylaminotetracycline], for which, in data set [1], the MPE is given as 0.170, the “PIF 1” value is given as 5.17 and the “PIF 2” value is 12.87.

As to `O=C(NCN1CCNCC1)C1=C(O)CC2CC3Cc4cccc(O)c4C(=O)C3=C(O)C2(O)C1=O` (stereo not shown) [COL 315, 2-CONHCH2-piperazin-1-yl-6-demethyl-6-deoxy-4-dedimethylaminotetracycline], in data set [1], the MPE came to 0.276, the “PIF 1” value is listed as 15.8 and the “PIF 2” value is 35.30.

As to `CC1c2ccc(N)c(O)c2C(=O)C2=C(O)C3(O)C(=O)C(C(N)=O)=C(O)CC3C(O)C21` (stereo not shown) [COL 805, 9-amino-4-dedimethylaminodoxycycline], in data set [1], the MPE was found to be 0.022 and the “PIF 1” value worked out at 1.0.

Regarding `CC1c2ccc(NC(=O)CN(C)C)c(O)c2C(=O)C2=C(O)C3(O)C(=O)C(C(N)=O)=C(O)CC3C(O)C21` (stereo not shown) [COL 802, 9-dimethylaminoacetamido-4-dedimethylaminodoxycycline], in data set [1], the MPE is recorded as −0.123 and the “PIF 1” value came out at 1.0.

For the molecule `CN(C)CCCN1c2ccccc2Sc2ccc(Cl)cc21` [Chlorpromazine, reference compound], in data set [1] (mouse), the MPE worked out at 0.639 and the “PIF 2” value is reported as 40.38.

Turning to `NC(=O)C1=C(O)C[C@@H]2C[C@@H]3Cc4cccc(O)c4C(=O)C3=C(O)[C@]2(O)C1=O` [COL 3, 6-demethyl-6-deoxy-4-dedimethylaminotetracycline], in data set [1], the MPE stood at 0.654, the “PIF 1” value is 647 and the “PIF 2” value came out at 84.72.

As for `NC(=O)C1=C(O)CC2CC3Cc4ccc([N+](=O)[O-])c(O)c4C(=O)C3=C(O)C2(O)C1=O` (stereo not shown) [COL 303, 9-nitro-6-demethyl-6-deoxy-4-dedimethylaminotetracycline], in data set [1], the MPE was 0.309, the “PIF 1” value was determined as 5.27 and the “PIF 2” value stood at 13.82.

`O=C(NCN1CCCCC1)C1=C(O)CC2CC3Cc4cccc(O)c4C(=O)C3=C(O)C2(O)C1=O` (stereo not shown) [COL 313, 2-CONHCH2-piperidin-1-yl-6-demethyl-6-deoxy-4-dedimethylaminotetracycline]: in data set [1], the MPE is 0.462, the “PIF 1” value came to 80.27 and the “PIF 2” value amounted to 58.22.

As to `CC1c2cccc(O)c2C(=O)C2=C(O)C3(O)C(=O)C(C(=O)NCN4CCCCC4)=C(O)CC3C(O)C21` (stereo not shown) [COL 808, 2-CONHCH2-piperidin-1-yl-4-dedimethylaminodoxycycline], in data set [1], the MPE was found to be 0.387 and the “PIF 1” value is listed as 46.45.

Consider `CN(C)c1ccc(O)c2c1C[C@H]1C[C@H]3[C@H](N(C)C)C(O)=C(C(N)=O)C(=O)[C@@]3(O)C(O)=C1C2=O` [minocycline HCl], for which the “average minocycline serum level” value in data set [4] was 2.24 µg/mL.

With `C[C@H]1c2cccc(O)c2C(=O)C2=C(O)[C@]3(O)C(=O)C(C(N)=O)=C(O)[C@@H](N(C)C)[C@@H]3[C@@H](O)[C@@H]21` [Doxycycline, 6α-deoxy-5-hydroxytetracycline, reference compound], in data set [1] (mouse), the MPE turned out to be 0.522, the “PIF 1” value stood at 23.37 and the “PIF 2” value was determined as 26.71.

As for `NC(=O)C1=C(O)CC2CC3Cc4ccc(N)c(O)c4C(=O)C3=C(O)C2(O)C1=O` (stereo not shown) [COL 308, 9-amino-6-demethyl-6-deoxy-4-dedimethylaminotetracycline], in data set [1], the MPE is recorded as 0.015 and the “PIF 1” value stood at 1.0.

On to `CC(=O)Nc1ccc2c(c1O)C(=O)C1=C(O)C3(O)C(=O)C(C(N)=O)=C(O)CC3CC1C2` (stereo not shown) [COL 305, 9-acetamido-6-demethyl-6-deoxy-4-dedimethylaminotetracycline], for which the MPE in data set [1] turned out to be 0.420.

In the case of `CN(C)c1cc([N+](=O)[O-])c(O)c2c1CC1CC3CC(O)=C(C(N)=O)C(=O)C3(O)C(O)=C1C2=O` (stereo not shown) [COL 1002, 9-nitro-4-dedimethylaminominocycline], in data set [1], the MPE is reported as 0.040, the “PIF 1” value is reported as 1.0, the “PIF 2” value came to 1.35 and the “mean PIF2” value is recorded as 1.35.

For `CC1c2ccc([N+](=O)[O-])c(O)c2C(=O)C2=C(O)C3(O)C(=O)C(C(N)=O)=C(O)CC3C(O)C21` (stereo not shown) [COL 804, 9-nitro-4-dedimethylaminodoxycycline], in data set [1], the MPE was determined as 0.003 and the “PIF 1” value was found to be 1.0.
